Source: patent US20100160293A1, “Solid Ophthalmic Drug for External Use” (priority 2005, published 2010)
Structures can show the parent of a compound that is named as a salt.

Assay: SKIN-CAD simulation of ketotifen fumarate concentration profile in conjunctiva
Set-up: species or system rabbit
Conditions: simulation parameter
From the text: The above data were fed into SKIN-CAD (Biocom Systems, Inc., Fukuoka, Japan), a software for analysis of skin permeation of drugs, together with the parameters for hairless mouse skin permeation and parameters for rabbit tear fluid kinetics, to simulate a ketotifen fumarate concentration profile in rabbit's conjunctiva.
According to references, the rate of uptake of absorbed drugs by the subvascular tissues in normal capillary vessels is around 3-5% (K. Tojo, Mathematical models of transdermal and topical drug delivery, 2nd edition, Biocom Systems, Fkuoka, Japan, 2005), and the above transfer rate of 3% (i.e., the rate of uptake into the tear fluid) almost agrees with this. Based on this rate of uptake (3%), the profile of drug concentration in the conjunctiva was simulated again, this time on the assumption that the solid pharmaceutical preparation was rubbed on the skin only once, not ten times, by replacing the parameter for drug thickness in SKIN-CAD with 1/10 of the value in the above test, i.e., with 0.005 cm.
As to the concentration of the drug in the conjunctiva, the results of the above test where the solid pharmaceutical preparation was applied (Table 10, 10 times application) and a graph produced by SKIN-CAD in agreement with the results, the data after the above topical instillation (Table 13), and the result of the simulation by SKIN-CAD where the solid pharmaceutical preparation was rubbed only once (1 time application) are shown together in FIG. 9.

[1] = rabbit tear fluid pharmacokinetics

Absorption Rate Constant into Blood: 0.04 s⁻¹
Device/Skin Partition Coefficient (device design): 5.80 × 10^−2
Diffusion Coefficient in Device (device design): 1.97 × 10^−9 cm^2/sec
Diffusion Coefficient in Stratum Corneum (hairless mouse skin permeation): 1.12 × 10^−11 cm^2/sec
Elimination Rate Constant, K10 [1]: 0.00385 s⁻¹
Volume of Distribution, V1 [1]: 0.008 mL
SMILES: CN1CCC(=C2c3ccccc3CC(=O)c3sccc32)CC1 [ketotifen fumarate]
Diffusion Coefficient in Viable Skin (hairless mouse skin permeation): 3.75 × 10^−7 cm^2/sec
Stratum Corneum/Viable Skin Partition Coefficient (hairless mouse skin permeation): 2.47 × 10^2
